Test results reported in ChEMBL document CHEMBL6121062, “Discovery, Optimization, and Preclinical Pharmacology of EP652, a METTL3 Inhibitor with Efficacy in Liquid and Solid Tumor Models” (J Med Chem, 2025).

Experiments:
[1] = biological target: T1, METTL3/METTL14 (Homo sapiens, UniProt Q86U44); assay: Displacement of [3H]-SAM from METTL3/METTL14 (unknown origin) using 5'biotinylated-UACACUCGAUCUGGACUAAAGGUGCUC-3' RNA as substrate preincubated for 10 mins followed by substrate/[3H]-SAM addition measured after 90 mins by SPA; format: protein-complex assay
[2] = Unbound clearance in Sprague-Dawley rat at 1 mg/kg/day, iv measured for 24 hrs by LC-MS/MS analysis; format: ADME, organism-based; settings: in vivo
[3] = test system: Kasumi 1; assay: Antiproliferative activity against human Kasumi 1 cells assessed as inhibition of cell viability incubated for 72 hrs by ATPlite assay; format: functional, cell-based; settings: Kasumi 1, 72 h
[4] = Unbound fraction in Sprague-Dawley rat plasma at 1 mg/kg/day, iv measured for 24 hrs by LC-MS/MS analysis; format: ADME, organism-based; settings: in vivo
[5] = Lipophilicity, logD of compound in 1-octanol/PBS at pH 7.4 incubated for 24 hrs by HPLC analysis; format: physicochemical
[6] = Unbound AUC in Sprague-Dawley rat at 1 mg/kg/day, iv measured for 24 hrs by LC-MS/MS analysis; format: ADME, organism-based; settings: in vivo
[7] = Half life in rat liver microsomes; format: ADME, Microsome
[8] = biological target: Cytochrome P450 3A4 (Homo sapiens, UniProt P08684); assay: Inhibition of CYP3A4 (unknown origin); format: ADME
[9] = biological target: T1, METTL3/METTL14; assay: Inhibition of METTL3/METTL14-mediated m6A mRNA expression in human Calu-6 cells incubated for 24 hrs by LC-MS/MS analysis; format: cell-based
[10] = test system: Caov-3 cell line; assay: Antiproliferative activity against human Caov-3 cells assessed as inhibition of cell viability incubated for 72 hrs by ATPlite assay; format: functional, cell-based; settings: Caov-3, 72 h
[11] = biological target: T1, METTL3/METTL14; assay: Inhibition of METTL3/METTL14-mediated m6A mRNA expression in human MV4-11 cells incubated for 24 hrs by LC-MS/MS analysis; format: cell-based
[12] = In vivo inhibition of METTL3/METTL14-mediated m6A mRNA expression in PBMC of rat at 3 to 30 mg/kg relative to control; format: functional; settings: dose 3-30 mg/kg
[13] = biological target: T1, METTL3/METTL14; assay: Inhibition of METTL3/METTL14-mediated m6A mRNA expression in human Kasumi 1 cells incubated for 24 hrs by LC-MS/MS analysis; format: cell-based
[14] = Unbound AUC in mouse at 30 mg/kg, ip; format: ADME, organism-based; settings: in vivo
[15] = biological target: T1, METTL3/METTL14; assay: Inhibition of METTL3/METTL14-mediated m6A mRNA expression in human A549 cells incubated for 24 hrs by LC-MS/MS analysis; format: cell-based
[16] = biological target: T1, METTL3/METTL14; assay: Inhibition of METTL3/METTL14-mediated m6A mRNA expression in human FaDu cells incubated for 24 hrs by LC-MS/MS analysis; format: cell-based
[17] = test system: Rattus norvegicus; assay: In vivo inhibition of METTL3/METTL14-mediated m6A mRNA expression in PBMC of rat; format: functional, organism-based; settings: dose 3-30 mg/kg
[18] = test system: FaDu; assay: Antiproliferative activity against human FaDu cells assessed as inhibition of cell viability incubated for 72 hrs by ATPlite assay; format: functional, cell-based
[19] = test system: Calu-6; assay: Antiproliferative activity against human Calu-6 cells assessed as inhibition of cell viability incubated for 72 hrs by ATPlite assay; format: functional, cell-based; settings: Calu-6, 72 h
[20] = test system: A549; assay: Antiproliferative activity against human A549 cells assessed as inhibition of cell viability incubated for 72 hrs by ATPlite assay; format: functional, cell-based; settings: A549, 72 h
[21] = biological target: T1, METTL3/METTL14; assay: Inhibition of METTL3/METTL14-mediated m6A mRNA expression in human SK-OV-3 cells incubated for 24 hrs by LC-MS/MS analysis; format: cell-based
[22] = test system: SK-OV-3; assay: Antiproliferative activity against human SK-OV-3 cells assessed as inhibition of cell viability incubated for 72 hrs by ATPlite assay; format: functional, cell-based; settings: SK-OV-3, 72 h
[23] = test system: NCI-H1650; assay: Growth inhibition of human NCI-H1650 cells spheroid model; format: functional, cell-based
[24] = test system: MV4-11; assay: Antiproliferative activity against human MV4-11 cells assessed as inhibition of cell viability incubated for 72 hrs by ATPlite assay; format: functional, cell-based; settings: MV4-11, 72 h

T1 sequence (Q86U44 whole entry): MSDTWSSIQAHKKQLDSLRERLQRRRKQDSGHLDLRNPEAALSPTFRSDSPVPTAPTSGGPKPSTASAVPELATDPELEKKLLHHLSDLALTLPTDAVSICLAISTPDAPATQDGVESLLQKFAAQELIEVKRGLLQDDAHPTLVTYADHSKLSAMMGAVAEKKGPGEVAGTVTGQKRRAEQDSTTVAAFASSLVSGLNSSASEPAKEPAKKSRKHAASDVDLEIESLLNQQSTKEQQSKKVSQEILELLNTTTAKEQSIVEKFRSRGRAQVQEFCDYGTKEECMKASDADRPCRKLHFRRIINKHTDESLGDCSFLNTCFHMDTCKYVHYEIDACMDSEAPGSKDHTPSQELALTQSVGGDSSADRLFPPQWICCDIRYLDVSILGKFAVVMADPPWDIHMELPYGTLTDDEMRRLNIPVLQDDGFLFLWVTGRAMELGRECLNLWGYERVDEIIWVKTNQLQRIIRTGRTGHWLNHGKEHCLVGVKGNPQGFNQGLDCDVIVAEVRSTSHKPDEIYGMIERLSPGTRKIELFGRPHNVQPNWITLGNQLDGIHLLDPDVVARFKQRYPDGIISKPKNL
T1 sequence (Q9HCE5 whole entry, further chain): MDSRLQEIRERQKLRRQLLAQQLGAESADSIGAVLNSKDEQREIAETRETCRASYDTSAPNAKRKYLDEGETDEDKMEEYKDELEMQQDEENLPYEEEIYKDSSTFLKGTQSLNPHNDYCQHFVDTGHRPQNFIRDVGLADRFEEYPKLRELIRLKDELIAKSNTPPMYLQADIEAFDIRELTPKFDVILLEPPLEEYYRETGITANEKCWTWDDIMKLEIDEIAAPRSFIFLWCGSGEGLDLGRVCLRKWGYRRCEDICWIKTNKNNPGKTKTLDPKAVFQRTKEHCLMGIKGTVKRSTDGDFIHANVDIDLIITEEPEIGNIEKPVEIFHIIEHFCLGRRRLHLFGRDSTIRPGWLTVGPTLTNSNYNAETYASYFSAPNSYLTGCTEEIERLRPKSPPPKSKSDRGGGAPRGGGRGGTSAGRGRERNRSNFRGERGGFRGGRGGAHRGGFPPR
Sequence of Cytochrome P450 3A4 (P08684 whole entry): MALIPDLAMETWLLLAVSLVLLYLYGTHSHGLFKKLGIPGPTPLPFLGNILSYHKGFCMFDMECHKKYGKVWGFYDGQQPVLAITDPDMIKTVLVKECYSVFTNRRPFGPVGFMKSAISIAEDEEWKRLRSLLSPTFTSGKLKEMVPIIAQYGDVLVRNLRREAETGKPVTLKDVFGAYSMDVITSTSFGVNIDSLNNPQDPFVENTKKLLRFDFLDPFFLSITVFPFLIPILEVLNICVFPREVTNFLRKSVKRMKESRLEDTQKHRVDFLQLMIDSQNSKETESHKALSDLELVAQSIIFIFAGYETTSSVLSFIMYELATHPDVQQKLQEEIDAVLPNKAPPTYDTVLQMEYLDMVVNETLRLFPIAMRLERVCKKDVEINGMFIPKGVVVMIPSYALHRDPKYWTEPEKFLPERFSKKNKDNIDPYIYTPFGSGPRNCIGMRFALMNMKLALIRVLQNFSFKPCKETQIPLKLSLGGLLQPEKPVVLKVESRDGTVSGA

SMILES	IC50 [1] [nM]	CL free [2] [mL/min/kg]	IC50 [3] [nM]	Fu [4] [%]	logD at 24 h [5]	fAUC [6] [µM·min]	also measured
COc1cncc(-c2cn([C@H](C)n3ccc(N4CCC[C@@H](NCC5CCC5)C4)cc3=O)nn2)c1	2	645	489	17.4	1.5	3.8	–
COc1cncc(-c2cn(Cn3ccc(N4CCC[C@@H](NCC5CCC5)C4)cc3=O)nn2)c1	3	854	1100	9.3	1.51	2.7	–
COc1cc(-c2cn(Cc3ccc(N4CCC[C@@H](NCC5CCC5)C4)nn3)nn2)c2cn[nH]c2c1	2	–	629	–	1.89	–	half-life [7]: 16 min; IC50 [8]: ~800 nM; IC50 [9]: 100 nM
COc1cncc(-c2cn(Cc3ccc(N4CCC[C@@H](NCC5CCC5)C4)nn3)nn2)c1	6	596	1930	11.1	1.47	5.7	–
COc1cncc(-c2cn(C(C)c3ccc(N4CCC[C@@H](NCC5CCC5)C4)nn3)nn2)c1 (stereo partly specified)	4	423	904	14	1.62	5.3	–
O=C(NCc1ccc2cc(CNCC3CCC3)[nH]c2c1)c1cc(=O)n2ccccc2n1	4	–	1160	–	1.9	4.6	IC50 [10]: 563 nM; IC50 [11]: 182 nM; inhibition (INH) [12]: <=61%; IC50 [13]: 138 nM; fAUC [14]: 298.1 µM·min; IC50 [15]: 264 nM; IC50 [16]: 331 nM; inhibition [17]: Dose-dependent-effect; IC50 [18]: 2210 nM; IC50 [19]: 1140 nM; IC50 [20]: > 5000 nM; IC50 [21]: 134 nM; IC50 [9]: 169 nM; IC50 [22]: 371 nM; IC50 [23]: 2060 nM; IC50 [24]: 7630 nM
COc1cncc(-c2cn(Cc3ccc(N4CCC[C@@H](NCC5CCC5)C4)cn3)nn2)c1	4	934	894	8.9	1.21	2.4	–
